Results as given in patent US12030903B2, “Antiviral compounds” (Gilead Sciences, Inc., priority 2020, dated 2024).
One block for each compound: values may come before it.

How the values were obtained:
[1] = tested on: RSV strain A2; assay: RSV HEp-2 EC50 (infectious cytopathic cell protection assay); type: cell-based, RSV strain A2; HEp-2 cells; settings: human respiratory syncytial virus, HEp-2, 96 h, read-out: RSV Hep-2 EC50
In short: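 HEp-2 cells (50,000/mL) infected with titered RSV stock, added onto compound in 3-fold serial dilutions; 4 days at 37 °C. Cell viability read by CellTiter-Glo luminescence; percent inhibition of virus-induced cytopathic effect derived from remaining viability against 0% and 100% inhibition controls.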

[2] = HEp-2 CC50 (cytotoxicity in uninfected HEp-2 cells); type: cell-based; settings: human, CellTiter Glo
Procedure: Instead, an uninfected cell mixture at the same density is added at 20 uL/well to plates containing prediluted compounds, also at 100 nL/sample. Assay plates are then incubated for 4 days followed by a cell viability test using the same CellTiter Glo reagent addition and measurement of luminescent readouts. Untreated cell and cells treated at 2 μM puromycin (Sigma, St. Louis, MO) serve as 100% and 0% cell viability control, respectively.

[3] = tested on: RSV A2; assay: RSV NHBE EC50 (RSV A2 antiviral assay in NHBE cells); type: cell-based, RSV A2; normal human bronchial epithelial (NHBE) cells; settings: human respiratory syncytial virus, 96 h; NHBE cells infected with RSV A2, 4 days, Cell-Titer Glo
Procedure: Example 88. RSV NHBE EC50
Normal human bronchial epithelial (NHBE) cells were purchased from Lonza (Walkersville, MD, Cat #CC-2540) and cultured in Bronchial Epithelial Growth Media (BEGM) (Lonza, Walkersville, MID, Cat 9 CC-3170). The cells were passaged 1-2 times per week to maintain<80% confluency. The NHBE cells were discarded after 6 passages in culture.
To conduct the RSV A2 antiviral assay, NHBE cells were plated in 96-well plates at a density of 7,500 cells per well in BEGM and allowed to attach overnight at 37° C. Following attachment, 100 μL of cell culture media was removed and 3-fold serially diluted compound was added using a Hewlett-Packard D300 Digital Dispenser. The final concentration of DMSO was normalized to 0.05%. Following compound addition, the NHBE cells were infected by the addition of 100 μL of RSV A2 at a titer of […] tissue culture infectious doses/mL in BEGM and then incubated at 37° C. for 4 days. The NHBE cells were then allowed to equilibrate to 25° C. and cell viability was determined by removing 100 μL of culture medium and adding 100 μL of Cell-Titer Glo viability reagent. The mixtures were incubated for 10 minutes at 25° C., and the luminescence signal was quantified on an Envision luminescence plate reader.

[4] = molecular target: T1, DENV2 NS5 (Dengue virus type 2, UniProt P14340); assay: DENV Pol IC50 (DENV2-NS5 polymerase assay); type: biochemical; settings: 100 nM DENV2 NS5, sshRNA template, 90 minutes at 30° C.
T1 construct: His tag (pET28b, thrombin-cleavable) (N); made in house; host or cells: E. coli BL21 (DE3)

[5] = tested on: Dengue serotype 2 New Guinea C (NGC) strain; assay: DENV-2 Huh-7 EC50 (qPCR of viral RNA in infected Huh7 cells); type: cell-based; settings: Dengue virus, DENV2, Huh-7, Huh7 cells infected with Dengue serotype 2 NGC, MOI=0.1, 48 hours
In short: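 Huh7 cells were infected 2 h at 37 °C with DENV-2 NGC at MOI 0.1, then plated with graded compound doses (0.25% DMSO) in triplicate for 48 h. Viral RNA was quantified by duplex TaqMan qPCR against GAPDH. EC50 was normalized to positive and no-compound controls.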

[6] = Huh-7 CC50 (CellTiter Glo viability); type: cell-based, Human; settings: human, Huh7 hepatocarcinoma cells
In short: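 Huh7 cells in 10% FCS DMEM plated at 1-2×10^4 per well in triplicate with graded compound doses, 0.25% DMSO throughout. Viability after 48 hours by CellTiter Glo luminescence, normalized to no-compound and no-cell controls; CC50 from curve fitting.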

[7] = moDC CC50 (CellTiter Glo viability); type: cell-based, Human; settings: human, uninfected moDCs
[8] = tested on: Dengue 2, New Guinea strain (NGC); assay: DENV-2 moDC EC50 (qPCR of viral RNA in infected moDCs); type: cell-based, New Guinea strain (NGC); human moDCs; settings: Dengue virus, human moDCs infected with Dengue 2 NGC, MOI=0.1, 48 hours
In short: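 moDCs differentiated 7 days from CD14+ monocytes with GM-CSF/IL-4, infected with Vero-derived DENV-2 NGC at MOI 0.1 for 2 h at 37 °C, then plated in triplicate with graded compound doses (0.25% DMSO). At 48 h viral RNA quantified by duplex TaqMan qPCR against GAPDH; EC50 normalized to positive and no-compound controls.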

SMILES: Nc1ncnn2c([C@@H]3O[C@@](CO)(CF)[C@@H](O)[C@H]3O)ccc12 [Intermediate 5, (2R,3S,4R,5S)-5-(4-aminopyrrolo[2,1-f][1,2,4]triazin-7-yl)-2-(fluoromethyl)-2-(hydroxymethyl)tetrahydrofuran-3,4-diol]
- EC50 [1]: > 50000 nM
- CC50 at 4 days [2]: > 50000 nM
- EC50 [3]: > 4830 nM

- IC50 [4]: 737 nM
SMILES: Nc1ncnn2c([C@@H]3O[C@](CF)(COP(=O)(O)OP(=O)(O)OP(=O)(O)O)[C@@H](O)[C@H]3O)ccc12 [Example 2, sodium ((2R,3S,4R,5S)-5-(4-aminopyrrolo[2,1-f][1,2,4]triazin-7-yl)-2-(fluoromethyl)-3,4-dihydroxytetrahydrofuran-2-yl)methyl triphosphate]

SMILES: CCC(CC)COC(=O)[C@H](C)N[P@](=O)(OC[C@@]1(CF)O[C@@H](c2ccc3c(N)ncnn23)[C@H](O)[C@@H]1O)Oc1ccccc1 [Example 1, 2-ethylbutyl ((S)-(((2R,3S,4R,5S)-5-(4-aminopyrrolo[2,1-f][1,2,4]triazin-7-yl)-2-(fluoromethyl)-3,4-dihydroxytetrahydrofuran-2-yl)methoxy)(phenoxy)phosphoryl)-L-alaninate]
- EC50 [5]: 151 nM
- CC50 at 48 h [6]: 18000 nM
- EC50 [1]: 119 nM
- CC50 at 4 days [2]: > 50000 nM
- EC50 [3]: 595 nM
- CC50 at 48 h [7]: > 5890 nM
- EC50 [8]: 117 nM

SMILES: COC(=O)[C@H](C)NP(=O)(OC[C@@]1(CF)O[C@@H](c2ccc3c(N)ncnn23)[C@H](OC(=O)C(C)C)[C@@H]1OC(=O)C(C)C)Oc1ccccc1 (single isomer, unassigned) [Example 11]
- EC50 [5]: 586 nM
- CC50 at 48 h [6]: > 18800 nM
- EC50 [1]: 2040 nM
- CC50 at 4 days [2]: 12600 nM
- EC50 [3]: 367 nM
- CC50 at 48 h [7]: 16100 nM
- EC50 [8]: 380 nM

- IC50 [4]: 7090 nM
SMILES: Nc1ncnn2c([C@@H]3O[C@](CCl)(COP(=O)(O)OP(=O)(O)OP(=O)(O)O)[C@@H](O)[C@H]3O)ccc12 [Comp. Ex. 2, ((2R,3S,4R,5S)-5-(4-aminopyrrolo[2,1-f][1,2,4]triazin-7-yl)-2-(chloromethyl)-3,4-dihydroxytetrahydrofuran-2-yl)methyl tetrahydrogen triphosphate, reference compound]

SMILES: COC(=O)[C@H](C)NP(=O)(OC[C@@]1(CF)O[C@@H](c2ccc3c(N)ncnn23)[C@H](O)[C@@H]1O)Oc1ccccc1 (stereo partly drawn) [Example 10, methyl ((((2R,3S,4R,5S)-5-(4-aminopyrrolo[2,1-f][1,2,4]triazin-7-yl)-2-(fluoromethyl)-3,4-dihydroxytetrahydrofuran-2-yl)methoxy)(phenoxy)phosphoryl)-L-alaninate]
- EC50 [5]: 843 nM
- CC50 at 48 h [6]: > 25000 nM
- EC50 [1]: 909 nM
- CC50 at 4 days [2]: > 50000 nM
- EC50 [3]: 2110 nM
- CC50 at 48 h [7]: > 19500 nM
- EC50 [8]: 679 nM
